Source: US12122778B2, “Activating pyruvate kinase R” (Novo Nordisk Health Care AG, priority 2018, dated 2024)

Experiments:
PKR(wt) = PKR(wt) (Homo sapiens, UniProt P30613); assay: Luminescence Biochemical Assay (Kinase Glo Plus), wild type PKR; details: without FBP; for activation at 1.54 µM: 1.54 μM compound, read-out: AC50 LUM KGP woFBP % Fold@1.54 μM mean; for AC50: read-out: AC50 LUM KGP woFBP AC50 μM gmean; for Emax: read-out: AC50 LUM KGP woFBP MAX % FOLD mean
Description: (§1) In some embodiments, a PKR Activating Compound can have: (1) an AC50 value of less than 0.1 μM (e.g., compounds with AC50 values of “+++” in Table 13), 0.1-1.0 μM (e.g., compounds with AC50 values of “++” in Table 13), or 1.01-40 μM (e.g., compounds with AC50 values of “+” in Table 13); (2) a MAX % Fold of 75%-250%, 250-500%, or 75%-500%; and/or (3) a % Fold@1.54 μM of 75%-250%, 250-500%, or 75%-500%. In some embodiments, a PKR Activating Compound has (1) an AC50 value of less than 1.0 μM; (2) a MAX % Fold of 75%-500%; and/or (3) a % Fold@1.54 μM of 75%-500%.
(§2) The phosphorylation of Adenosine-5′-diphosphate (ADP) by various mutants of PKR was determined by the Kinase Glo Plus Assay (Promega) in the presence or absence of FBP [D-Fructose-1,6-diphosphate; BOC Sciences, CAS: 81028-91-3] as follows. Unless otherwise indicated, all reagents were purchased from Sigma-Aldrich. All reagents were prepared in buffer containing 50 mM Tris-HCl, 100 mM KCl, 5 mM MgCl2, and 0.01% Triton X100, 0.03% BSA, and 1 mM DTT. Enzyme and PEP [Phospho(enol) pyruvic acid] were added at 2× to all wells of an assay-ready plate containing serial dilutions of test compounds or DMSO vehicle. Final enzyme concentrations for PKR(wt), PKR(R510Q), and PKR(G332S) were 0.8 nM, 0.8 nM, and 10 nM respectively. Final PEP concentration was 100 μM. The Enzyme/PEP mixture was incubated with compounds for 30 minutes at RT before the assay was initiated with the addition of 2×ADP [Adenosine-5′-diphosphate] and KinaseGloPlus. Final concentration of ADP was 100 μM. […] For assays containing FBP, that reagent is added at 30 μM upon reaction initiation. Reactions were allowed to progress for 45 minutes at RT until luminescence was recorded by the BMG PHERAstar FS Multilabel Reader. All compounds were tested in triplicate at concentrations ranging from 42.5 μM to 2.2 nM in 0.83% DMSO.
(§3) Luminescence values were converted to % Fold increase by normalizing to the average of the DMSO control and multiplying by 100. Max, min, slope and AC50 were determined by the standard four parameter fit algorithm of ActivityBase XE Runner. Compounds were evaluated with three parameters—AC50, MAX % Fold, and % Fold@1.54 μM (FIG. 1). The AC50 value for a compound is the concentration (μM) corresponding to the midway between the maximum and minimum values of the four parameter logistic curve fit (i.e., at which the % fold increase along the four parameter logistic curve fit is halfway between MAX % Fold and MIN % Fold (% Fold Midpoint)), MAX % Fold is the highest fold increase observed at any concentration of compound, and % Fold@1.54 μM is the fold increase at a compound concentration of 1.54 μM. The parameter % Fold@1.54 μM was selected to capture elements of both the AC50 and MAX % Fold and to provide a ranking based on both potency and effect. The compound concentration of 1.54 μM was chosen as one that can optimally differentiate the set of compounds based on the range of activities observed.
(§4) As set forth in Table 13 below, AC50 values (columns A, D, G) are defined as follows: ≤0.1 μM (+++); >0.1 μM and ≤1.0 μM (++); >1.0 μM and ≤40 μM (+); >40 μM (0). Max % FOLD values (columns B, E, H) are defined as follows: ≤75% (+); >75% and ≤250% (++); >250% and ≤500% (+++). % Fold@1.54 μM values (columns C, F, J) are defined as follows: ≤75% (+); >75% and ≤250% (++); >250% and ≤50000 (+++).

PKR(R510Q) = PKR(R510Q) (Homo sapiens, UniProt P30613, R510Q); assay: Luminescence Biochemical Assay (Kinase Glo Plus), PKR R510Q mutant; details: without FBP; for activation at 1.54 µM: 1.54 μM compound, read-out: AC50 LUM KGP woFBP % Fold@1.54 μM mean; for AC50: read-out: AC50 LUM KGP woFBP AC50 μM gmean; for Emax: read-out: AC50 LUM KGP woFBP MAX % FOLD mean
PKR(R510Q), sequence (P30613 whole entry R510Q): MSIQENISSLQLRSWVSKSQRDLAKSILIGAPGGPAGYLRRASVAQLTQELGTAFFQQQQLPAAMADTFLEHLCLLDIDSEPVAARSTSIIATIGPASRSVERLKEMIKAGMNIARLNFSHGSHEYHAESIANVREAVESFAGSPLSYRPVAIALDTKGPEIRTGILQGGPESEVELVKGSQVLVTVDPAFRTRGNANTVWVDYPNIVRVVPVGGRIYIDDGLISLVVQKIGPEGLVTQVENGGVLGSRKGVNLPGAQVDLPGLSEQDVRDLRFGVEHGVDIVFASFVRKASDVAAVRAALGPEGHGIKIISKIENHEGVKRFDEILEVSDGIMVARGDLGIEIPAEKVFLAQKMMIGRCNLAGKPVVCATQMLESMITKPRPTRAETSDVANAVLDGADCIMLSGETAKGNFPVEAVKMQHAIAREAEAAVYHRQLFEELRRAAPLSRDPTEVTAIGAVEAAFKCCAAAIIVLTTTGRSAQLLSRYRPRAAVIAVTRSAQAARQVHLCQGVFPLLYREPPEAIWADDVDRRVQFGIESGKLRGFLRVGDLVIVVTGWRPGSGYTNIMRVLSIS
Description: as §1, §2, §3, §4

PKR(wt), sequence (P30613 whole entry): as the sequence (P30613 whole entry R510Q) above, with Q510R counted along it

| activation at 1.54 µM (PKR(wt)) | AC50 (PKR(wt)) | Emax (PKR(wt)) | activation at 1.54 µM (PKR(R510Q)) | AC50 (PKR(R510Q)) | Emax (PKR(R510Q)) | Compound |
| --- | --- | --- | --- | --- | --- | --- |
| 75 to 250% | 0.1 to 1 µM | 75 to 250% | 75 to 250% | 1 to 40 µM | 250 to 500% | O=C([C@H](O)c1ccccc1)N1CC2=C(C1)CN(S(=O)(=O)c1ccc(C(F)(F)F)cc1)C2 [Example 18-11, (2R)-2-hydroxy-2-phenyl-1-{5-[4-(trifluoromethyl)benzene-sulfonyl]-1H,2H,3H,4H,5H,6H-pyrrolo[3,4-c]pyrrol-2-yl}ethan-1-one] |
| 75 to 250% | 1 to 40 µM | 75 to 250% | 75 to 250% | 1 to 40 µM | 75 to 250% | O=C([C@H](O)c1ccccc1)N1CC2=C(C1)CN(S(=O)(=O)c1ccc(C(F)(F)F)nc1)C2 [Example 18-14, (2R)-2-hydroxy-2-phenyl-1-(5-{[6-(trifluoromethyl)pyridin-3-yl]sulfonyl}-1H,2H,3H,4H,5H,6H-pyrrolo[3,4-c]pyrrol-2-yl)ethan-1-one] |
| 75 to 250% | 1 to 40 µM | 75 to 250% | – | – | – | O=C(c1ccccn1)N1CC2=C(C1)CN(S(=O)(=O)c1ccc3occc3c1)C2 [Example 18-83, 2-[5-(1-Benzofuran-5-sulfonyl)-1H,2H,3H,4H,5H,6H-pyrrolo[3,4-c]pyrrole-2-carbonyl]pyridine] |
| 75 to 250% | 1 to 40 µM | 75 to 250% | – | – | – | Cc1nc(C)c(C(=O)N2CC3=C(C2)CN(S(=O)(=O)c2ccc4occc4c2)C3)s1 [Example 18-85, 5-[5-(1-Benzofuran-5-sulfonyl)-1H,2H,3H,4H,5H,6H-pyrrolo[3,4-c]pyrrole-2-carbonyl]-2,4-dimethyl-1,3-thiazole] |
| – | – | – | 75 to 250% | 1 to 40 µM | 75 to 250% | C[C@@H](C(=O)N1CC2=C(C1)CN(S(=O)(=O)c1ccc(Cl)s1)C2)c1ccccc1 [Example 19-1, (2R)-1-{5-[(5-chlorothiophen-2-yl)sulfonyl]-1H,2H,3H,4H,5H,6H-pyrrolo[3,4-c]pyrrol-2-yl}-2-phenylpropan-1-one] |
| – | – | – | 75 to 250% | 1 to 40 µM | 75 to 250% | Cc1nn(C)c(Cl)c1S(=O)(=O)N1CC2=C(CN(C(=O)[C@H](C)c3ccccc3)C2)C1 [Example 19-2, (2R)-1-{5-[(5-chloro-1,3-dimethyl-1H-pyrazol-4-yl)sulfonyl]-1H,2H,3H,4H,5H,6H-pyrrolo[3,4-c]pyrrol-2-yl}-2-phenylpropan-1-one] |
| – | – | – | 75 to 250% | 1 to 40 µM | 75 to 250% | COc1ccc(CNC(=O)N2CC3=C(C2)CN(S(=O)(=O)c2ccc(OC)c(OC)c2)C3)cc1 [Example 20-31, 5-(3,4-Dimethoxybenzenesulfonyl)-N-[(4-methoxyphenyl)methyl]-1H,2H,3H,4H,5H,6H-pyrrolo[3,4-c]pyrrole-2-carboxamide] |
| 250 to 50000% | ≤ 0.1 µM | 250 to 500% | – | – | – | O=C(NCc1ccco1)N1CC2=C(C1)CN(S(=O)(=O)c1ccc3ncsc3c1)C2 [Example 21-1, 5-(Benzo[d]thiazol-6-ylsulfonyl)-N-(furan-2-ylmethyl)-3,4,5,6-tetrahydropyrrolo[3,4-c]pyrrole-2(1H)-carboxamide] |
| 250 to 50000% | ≤ 0.1 µM | 250 to 500% | – | – | – | O=C(NCc1ccco1)N1CC2=C(C1)CN(S(=O)(=O)c1ccc(OC(F)F)cc1)C2 [Example 21-2, 5-[4-(Difluoromethoxy)benzenesulfonyl]-N-(furan-2-ylmethyl)-1H,2H,3H,4H,5H,6H-pyrrolo[3,4-c]pyrrole-2-carboxamide] |
| 75 to 250% | 1 to 40 µM | 250 to 500% | – | – | – | Cc1ccc(C(C)NC(=O)N2CC3=C(C2)CN(S(=O)(=O)c2ccc(OC(F)F)cc2)C3)s1 (stereo not drawn) [Example 21-7, 5-[4-(Difluoromethoxy)benzenesulfonyl]-N-[1-(5-methylthiophen-2-yl)ethyl]-1H,2H,3H,4H,5H,6H-pyrrolo[3,4-c]pyrrole-2-carboxamide] |
| 250 to 50000% | 0.1 to 1 µM | 250 to 500% | – | – | – | O=C(OCc1cccnc1)N1CC2=C(C1)CN(S(=O)(=O)c1ccc3occc3c1)C2 [Example 22-7, Pyridin-3-ylmethyl 5-(1-benzofuran-5-sulfonyl)-1H,2H,3H,4H,5H,6H-pyrrolo[3,4-c]pyrrole-2-carboxylate] |

The remaining lines, values behind:

| Compound | activation at 1.54 µM (PKR(wt)) | AC50 (PKR(wt)) | Emax (PKR(wt)) | activation at 1.54 µM (PKR(R510Q)) | AC50 (PKR(R510Q)) | Emax (PKR(R510Q)) |
| --- | --- | --- | --- | --- | --- | --- |
| O=C([C@H](O)c1ccccc1)N1CC2=C(C1)CN(S(=O)(=O)c1ccc(Cl)cc1)C2 [Example 18-10, (2R)-1-[5-(4-chlorobenzenesulfonyl)-1H,2H,3H,4H,5H,6H-pyrrolo[3,4-c]pyrrol-2-yl]-2-hydroxy-2-phenylethan-1-one] | 75 to 250% | 0.1 to 1 µM | 75 to 250% | 75 to 250% | 1 to 40 µM | 250 to 500% |
| Cc1cc(C(=O)N2CC3=C(C2)CN(S(=O)(=O)c2ccc4occc4c2)C3)nn1C [Example 18-84, 3-[5-(1-Benzofuran-5-sulfonyl)-1H,2H,3H,4H,5H,6H-pyrrolo[3,4-c]pyrrole-2-carbonyl]-1,5-dimethyl-1H-pyrazole] | 75 to 250% | 1 to 40 µM | 75 to 250% | – | – | – |
| O=C(c1cnc(C(F)(F)F)nc1)N1CC2=C(C1)CN(S(=O)(=O)c1ccc3occc3c1)C2 [Example 18-86, 5-[5-(1-Benzofuran-5-sulfonyl)-1H,2H,3H,4H,5H,6H-pyrrolo[3,4-c]pyrrole-2-carbonyl]-2-(trifluoromethyl)pyrimidine] | 75 to 250% | 1 to 40 µM | 75 to 250% | – | – | – |
| COc1ccc(CNC(=O)N2CC3=C(C2)CN(S(=O)(=O)c2cccnc2)C3)cc1 [Example 20-2, N-[(4-methoxyphenyl)methyl]-5-(pyridine-3-sulfonyl)-1H,2H,3H,4H,5H,6H-pyrrolo[3,4-c]pyrrole-2-carboxamide] | 75 to 250% | 0.1 to 1 µM | 250 to 500% | – | – | – |
| COc1ccc(CNC(=O)N2CC3=C(C2)CN(S(=O)(=O)c2cccc(F)c2)C3)cc1 [Example 20-7, 5-(3-Fluorobenzenesulfonyl)-N-[(4-methoxyphenyl)methyl]-1H,2H,3H,4H,5H,6H-pyrrolo[3,4-c]pyrrole-2-carboxamide] | – | – | – | 250 to 50000% | 0.1 to 1 µM | 250 to 500% |
| Cc1ccc(C(C)NC(=O)N2CC3=C(C2)CN(S(=O)(=O)c2ccc(OC(F)F)cc2)C3)o1 (stereo not drawn) [Example 21-3, 5-[4-(Difluoromethoxy)benzenesulfonyl]-N-[1-(5-methylfuran-2-yl)ethyl]-1H,2H,3H,4H,5H,6H-pyrrolo[3,4-c]pyrrole-2-carboxamide] | 75 to 250% | 1 to 40 µM | 250 to 500% | – | – | – |
| Cc1cc(C(C)NC(=O)N2CC3=C(C2)CN(S(=O)(=O)c2ccc(OC(F)F)cc2)C3)c(C)o1 (stereo not drawn) [Example 21-4, 5-[4-(Difluoromethoxy)benzenesulfonyl]-N-[1-(2,5-dimethylfuran-3-yl)ethyl]-1H,2H,3H,4H,5H,6H-pyrrolo[3,4-c]pyrrole-2-carboxamide] | 75 to 250% | 1 to 40 µM | 250 to 500% | – | – | – |
| O=C(OCc1cccc(F)c1)N1CC2=C(C1)CN(S(=O)(=O)c1ccc3occc3c1)C2 [Example 22-6, (3-Fluorophenyl)methyl 5-(1-benzofuran-5-sulfonyl)-1H,2H,3H,4H,5H,6H-pyrrolo[3,4-c]pyrrole-2-carboxylate] | 250 to 50000% | 0.1 to 1 µM | 250 to 500% | – | – | – |
